“Also recorded” adds a separate entry of the source.
Experiments:
[1] = test system: experimental autoimmune uveoretinitis (EAU); assay: Induction of uveitis / EAU by the peptide; assay type: in vivo; conditions: Lewis rats
[2] = test system: experimental autoimmune uveoretinitis (EAU); conditions: cited from earlier work; for uveitogenicity / immunopathogenicity: rat, in vivo
[3] = test system: retinal ganglion cells (RGCs); assay: RGC survival after immunization in the absence of insult; conditions: for percentage of RGC survival (mean ± SEM) vs PBS-injected controls: immunization without insult
spinal cord = assay: Recovery from spinal cord contusion (open-field locomotor score); assay type: in vivo; conditions: female Lewis rats; contusion at T8; 100 μg in CFA (0.5 mg/ml) within 1 h after contusion
[4] = test system: retinal ganglion cells (RGCs); assay: Partial optic nerve crush injury: RGC survival after active immunization; assay type: in vivo, rats (SPD, Fisher, Lewis)
[5] = test system: retinal ganglion cells (RGCs); assay: Glutamate toxicity: RGC loss after intravitreal L-glutamate injection and immunization; assay type: in vivo; conditions: Lewis rats
[6] = test system: retinal ganglion cells (RGCs); conditions: glutamate insult or consequences of axonal injury; conditions where R16 protects; cited from earlier work
[7] = Fisher rats, 200 μg peptide in CFA immediately after optic nerve crush
[8] = Fisher rats, 200 μg peptide in CFA immediately after optic nerve crush, PBS control 109±12

Molecule: ADGSSWEGVGVVPVD (ADGSSWEGVGVVPDV) [Peptide R16, immunodominant uveitogenic peptide, amino acids 1177-1191 of bovine IRBP]
- clinical onset of EAU, day after immunization [1]: 10 days
- peak of inflammation (EAU), day after immunization [1]: 14 days
- induction of uveitis ([2]; Lewis rats, but not SPD or Fisher rats): known to cause uveitis in Lewis rats
- percentage of RGC survival (mean ± SEM) vs PBS-injected controls ([3]; Fisher rats): 97±8%
- percentage of RGC survival (mean ± SEM) vs PBS-injected controls ([3]; Lewis rats, 2 weeks after vaccination): 83±5%
- maximal loss of RGCs ([3]; non-injured Lewis rats, 2 weeks after vaccination): ~17%
- recovery of motor activity (open-field motor score) vs PBS in CFA (spinal cord): did not affect spinal cord recovery; also recorded: At no time were any differences observed
- surviving RGCs per square millimeter (mean ± SEM) ([4]; Fisher rats, 30 μg in CFA (2.5 mg/ml) immediately after optic nerve crush, PBS control 114±9): 183±16 per square millimeter
- surviving RGCs per square millimeter (mean ± SEM) ([4]; Fisher rats, 30 μg in CFA one week before crush, booster 30 μg in IFA after injury, PBS control 89±10): 165±22 per square millimeter
- surviving RGCs per square millimeter (mean ± SEM) ([4]; Lewis rats, 30 μg in CFA (2.5 mg/ml) immediately after optic nerve crush, PBS control 73±10): 192±8 per square millimeter
- surviving RGCs per square millimeter (mean ± SEM) ([4]; Lewis rats, 30 μg in CFA one week before crush, booster 30 μg in IFA after injury, PBS control 95±22, not statistically significant): 117±21 per square millimeter
- maximal benefit after a neuronal insult (surviving RGCs vs PBS) ([4]; Lewis rats, 192±8 vs 73±10 surviving RGCs/mm^2): 263%
- surviving RGCs per square millimeter (mean ± SEM) ([4]; SPD rats, 30 μg in CFA (2.5 mg/ml) immediately after optic nerve crush, PBS control 60±14): 150±13 per square millimeter
- percentage of RGC loss (mean ± SEM) relative to normal retinas ([5]; 400 nmol L-glutamate intravitreal, 30 μg peptide in CFA (0.5 mg/ml) immediately after, PBS in CFA control 28±4%): 14±2%
- protection of RGCs from glutamate toxicity ([5]; peptide emulsified in CFA at 2.5 mg/ml, compared with PBS in CFA, data not shown): not protective and even caused additional neuronal loss

Molecule: DTALASST [M-8 analog, M-8 in which asparagine at position 309 was replaced by alanine]
- uveitogenicity / immunopathogenicity [2]: immunogenic, but not immunopathogenic
- RGC survival compared with PBS-injected controls [4, 7]: Significantly more RGCs
- surviving RGCs per square millimeter (mean ± SEM) [4, 8]: 159±19 per square millimeter

Molecule: DTNLASST [Peptide M-8]
- uveitogenicity / immunopathogenicity [2]: uveitogenic
- RGC survival compared with PBS-injected controls [4, 7]: Significantly more RGCs
- surviving RGCs per square millimeter (mean ± SEM) [4, 8]: 153±10 per square millimeter

Molecule: TSSEAATE [G-8 analog, G-8 in which valine at position 351 was replaced by alanine]
- uveitogenicity / immunopathogenicity [2]: immunogenic, but not immunopathogenic
- RGC survival compared with PBS-injected controls ([4]; Fisher rats, 500 μg peptide in CFA immediately after optic nerve crush): Significantly more RGCs survived
- surviving RGCs per square millimeter (mean ± SEM) ([4]; Fisher rats, 500 μg peptide in CFA immediately after optic nerve crush, PBS control 90±11): 175±15 per square millimeter

Molecule: TSSEVATE [Peptide G-8]
- uveitogenicity / immunopathogenicity [2]: uveitogenic
- RGC survival compared with PBS-injected controls [4, 7]: Significantly more RGCs
- surviving RGCs per square millimeter (mean ± SEM) [4, 8]: 159±5 per square millimeter

B1: MBP: myelin basic protein, a myelin antigen (protein, UniProt P02688 2-195, looked up)
Myelin basic protein: ASQKRPSQRHGSKYLATASTMDHARHGFLPRHRDTGILDSIGRFFSGDRGAPKRGSGKVPWLKQSRSPLPSHARSRPGLCHMYKDSHTRTTHYGSLPQKSQRTQDENPVVHFFKNIVTPRTPPPSQGKGRGLSLSRFSWGAEGQKPGFGYGGRASDYKSAHKGFKGAYDAQGTLSKIFKLGGRDSRSGSPMARR
- protective effect on RGCs by vaccination [6]: no such protective effect
